Results as given in the supplement of paper PMC10307832.

Tests used:
Assay in all cases: relative viability (nuclei count vs DMSO), 5 days (fraction); higher = more cells survive
Serdemetan + Trametinib = compound: c1ccc2c(CCNc3ccc(Nc4ccncc4)cc3)c[nH]c2c1 [Serdemetan] + CC(=O)Nc1cccc(-n2c(=O)n(C3CC3)c(=O)c3c(Nc4ccc(I)cc4F)n(C)c(=O)c(C)c32)c1 [Trametinib] (partner 0.02 µM)
In short: (§1)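 The day after seeding in 1536-well plates, lung cancer cell lines were treated by pin tool with a single drug, or with a fixed anchor-drug dose together with five library-drug doses (not always all listed) in √10 steps. After 5 days, a combined fix-and-stain solution (final 0.05% Triton X-100, 1% formaldehyde, 1 ug/ml Hoechst) was added. Nuclei counted on 4× images gave relative viability as treated counts over vehicle counts, reported as the median of duplicate plates.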

Serdemetan + AZD7762 = compound: c1ccc2c(CCNc3ccc(Nc4ccncc4)cc3)c[nH]c2c1 [Serdemetan] + NC(=O)Nc1cc(-c2cccc(F)c2)sc1C(=O)N[C@H]1CCCNC1 [AZD7762] (partner 0.2 µM)
In short: as §1

Selisistat + Decitabine = compound: C1CC(C2=C(C1)C3=C(N2)C=CC(=C3)Cl)C(=O)N [Selisistat] + Nc1ncn([C@H]2C[C@H](O)[C@@H](CO)O2)c(=O)n1 [Decitabine] (partner 2 µM)
In short: as §1

Selisistat + Pictilisib = compound: C1CC(C2=C(C1)C3=C(N2)C=CC(=C3)Cl)C(=O)N [Selisistat] + CS(=O)(=O)N1CCN(Cc2cc3nc(-c4cccc5[nH]ncc45)nc(N4CCOCC4)c3s2)CC1 [Pictilisib] (partner 1 µM)
In short: as §1

Cell Line	relative viability (Serdemetan + Trametinib; first compound 0.04 µM)	relative viability (Serdemetan + Trametinib; first compound 0.1265 µM)	relative viability (Serdemetan + Trametinib; first compound 1.265 µM)	relative viability (Serdemetan + Trametinib; first compound 4 µM)	relative viability (Serdemetan + AZD7762; first compound 0.04 µM)	relative viability (Serdemetan + AZD7762; first compound 0.1265 µM)	relative viability (Serdemetan + AZD7762; first compound 1.265 µM)	relative viability (Serdemetan + AZD7762; first compound 4 µM)	relative viability (Selisistat + Decitabine; first compound 0.4 µM)	relative viability (Selisistat + Decitabine; first compound 1.265 µM)	relative viability (Selisistat + Decitabine; first compound 4 µM)	relative viability (Selisistat + Decitabine; first compound 12.65 µM)	relative viability (Selisistat + Decitabine; first compound 40 µM)	relative viability (Selisistat + Pictilisib; first compound 0.4 µM)	relative viability (Selisistat + Pictilisib; first compound 1.265 µM)	relative viability (Selisistat + Pictilisib; first compound 4 µM)	relative viability (Selisistat + Pictilisib; first compound 12.65 µM)	relative viability (Selisistat + Pictilisib; first compound 40 µM)	relative viability (Serdemetan + Trametinib; first compound 0.4 µM)	relative viability (Serdemetan + AZD7762; first compound 0.4 µM)
HCC-827	0.543	0.603	0.359	0.318	0.218	0.157	0.18	0.17	0.313	0.375	0.31	0.321	0.291	0.86	0.91	1.03	0.962	1.04		
HOP-62	0.353	0.319	0.314	0.28	0.762	0.544	0.519	0.49	0.22	0.211	0.215	0.227	0.192	0.865	0.651	0.449	0.619	0.935	0.343	0.731
IA-LM														0.277	0.368	0.353	0.502	0.375		
LC-2-ad	0.86	0.909	0.86	0.705	0.806	0.836	0.737	0.709	0.909	0.797	0.764	0.821	0.775	0.538	0.424	0.333	0.426	0.565	0.884	0.791
LCLC-97TM1	0.204	0.193	0.167	0.171	0.304	0.232	0.184	0.211	0.24	0.219		0.245	0.29	0.148	0.191	0.134	0.185	0.218	0.177	0.255
LCLC-103H	0.686	0.671	0.538	0.638	0.788	0.79	0.759	0.812	0.782	0.77	0.7	0.729	0.75	0.662	0.629	0.464	0.508	0.666	0.684	0.763
NCI-H520	0.632	0.65	0.57	0.428					0.586	0.512	0.536	0.592	0.493	0.262	0.304	0.15	0.294	0.354	0.623	
NCI-H522	0.678	0.698	0.702	0.612	0.731	0.699	1.04	0.801	0.768	0.662	0.664	0.617	0.647						0.87	0.931
NCI-H661	0.551	0.603	0.512	0.517					0.592	0.521	0.428	0.46	0.442	0.476	0.478	0.343	0.348	0.38	0.621	
NCI-H1299														0.778	0.744	1.02	0.849	0.692		
NCI-H1563														0.559	0.639	0.649	0.605	0.623		
NCI-H1648		0.534	0.317	0.296		0.809	0.594	0.482	0.477	0.45		0.406	0.551						0.393	0.762
NCI-H1650	0.58	0.633	0.611	0.516					0.545	0.422	0.382	0.481	0.438	0.692	0.59	0.516	0.589	0.548	0.49	
NCI-H1703					0.176	0.121		0.108						0.232	0.217	0.242	0.267	0.233		0.121
NCI-H2009	0.248	0.284	0.266	0.281					0.437	0.338	0.372	0.45	0.394	0.928	0.827	0.323	0.609	0.795	0.243	
NCI-H2023	0.616	0.538	0.223	0.298					0.233	0.198	0.219	0.216	0.202	0.25	0.265	0.201	0.255	0.222	0.522	
NCI-H2228	0.564	0.523	0.115	0.172										0.476	0.398	0.343	0.551	0.557	0.327	
NCI-H2342	0.818	0.84	0.789	0.669	0.516	0.467	0.39	0.457	0.734	0.772	0.689	0.704	0.874						1.12	0.545
SK-LU-1	0.485	0.464	0.332	0.44					0.716	0.675	0.676	0.604	0.679	0.65	0.637	0.429	0.695	0.635	0.444	
SK-MES-1	0.48	0.538	0.532	0.563					0.397	0.446	0.312	0.325	0.331	0.37	0.309	0.315	0.329	0.366	0.531	
SW 900	0.636	0.63	0.8	0.519	0.647	0.652	0.437	0.359	0.446	0.401	0.42	0.517	0.5						0.874	0.616
SW 1573	0.595	0.6	0.412	0.256					0.604	0.453	0.347	0.502	0.459	0.557	0.594	0.426	0.419	0.513	0.465	
